In series [1] the test system is β-lactamase-producing, β-lactam-resistant bacteria. Nature of the series: Increase of the antibiotic activity of other antibiotics (summary in words). Type of series: cell-based. The note with it: β-lactamase-producing bacteria such as Proteus vulgaris, Serratia marcescens. The method, then:
10 ml of 2.5 folds diluted nutrient agar (pH 7.0) containing 50 μg/ml of penicillin G or cephaloridine was seeded with the β-lactamase producing and β-lactam-resistant microorganisms and poured in a 9 cm Petri dish to provide the bio-assay agar plate. […] A control assay plate was similarly prepared without penicillin G or cephaloridine. As reference antibiotics, 10,000 μg/ml of penicillin G or 20 μl of cephaloridine were disc-assayed under the same conditions.
Cepholoridine was added to a 2.5-times diluted nutrient agar, pH 7.0 and the medium was inoculated with a β-lactam-producing strain that produceds β-lactamase. Ten ml of the medium was spread and solidified in a petri dish of 9 cm in diameter to prepare an assay plate. […] Each 20 μl of the solution and its 2- and 4-times diluted solutions was soaked in a pulp disc of 8 mm in diameter. To the surface of the above nutrient agar was placed the pulp disc and the size of the growth inhibitory zone around the disc was examined after incubation at 35° C. for 18 hours. […] In addition, for the comparison, a similar experiment was also performed with a pulp disk soaked with 20 μl of 10,000 μg/ml Penicillin G or Cepholoridine solution in place of the antibiotic PS-7.

In the next series the test system is Proteus mirabilis P-6. Nature of the series: MIC, broth dilution method. As to conditions: P6, 20 h, read-out: Minimum inhibitory concentration. A general note: In broth dilution the organism is exposed to a series of concentrations in liquid medium.
A further series deals with Proteus sp. P-22. Nature of the series: MIC, broth dilution method. The note with it: 20 h, read-out: Minimum inhibitory concentration.
The subject of another series is Proteus vulgaris P-5. Nature of the series: MIC, broth dilution method. The note with it: Proteus vulgaris, P5, 20 h, read-out: Minimum inhibitory concentration.
Series [2] has as its system Staphylococcus aureus Rassell. Briefly: MIC, broth dilution method. The note with it: 20 h, read-out: Minimum inhibitory concentration.
The test system of another series is Providencia sp. P-8. Briefly: MIC, broth dilution method. The note with it: SP.P8, 20 h, read-out: Minimum inhibitory concentration.
For series [3], the system named is Staphylococcus aureus Bx-1633. Nature of the series: MIC, broth dilution method. The note with it: BX1633, 20 h, read-out: Minimum inhibitory concentration.
A further series can be described thus: Solubility. Format: physicochemical. The note with it: antibiotic (sodium salt); for Solubility in organic solvents: solvents named in the value. The source says: The results are as shown as below:
The results are as shown below:

Series [4] addresses T1, Exo-penicillinase of Bacillus licheniformis 749/C (ATCC 25972) (Bacillus licheniformis, UniProt P00808).
T1 construct: made in house; host or cells: Bacillus licheniformis 749/C (ATCC 25972)
Nature of the series: Susceptibility to beta-lactamase as enzymic substrate. Type of series: biochemical. As to conditions: 15 minutes, 30° C., PS-6 3.3 μg/ml, optical density at 301 nm. The method, then: (a) Exo-penicillinase of Bacillus licheniformis 749/C (ATCC 25972). Purified by cephalexin-Sepharose 4B (Pharmacia Fine Chemicals AB) affinity column chromatography. The potency of this enzyme preparation was 16,600 units/ml. when the hydrolysis of potassium penicillin G was measured by iodometry at 30° C. in M/10, pH 6.8, phosphate buffer. One unit of penicillinase means the amount of enzyme that can hydrolyze 1 micromole of penicillin G for 60 minutes at 30° C. with a pH 6.8.
(§1) Time course of the hydrolysis was traced at 30° C. by determining the decrease in optical density at 301 nm which corresponds specifically to the concentration of antibiotic PS-6. As described in Japanese Patent Application No. 94651/77, the antibiotic PS-5 sodium salt preparation gave a E1 cm^1% value of 267.5 at the λmax of 301 nm. If this preparation contained no water of crystallization, its epsilon value would be 8560.
(§2) As 5% of the initial optical density of antibiotic PS-5 at 301 nm remained even after the complete decomposition with hydroxylamine or beta-lactamase, the differential optical density of this substrate at 301 nm was supposed to be Δε=8132. This was supposed to be applicable to the antibiotic PS-6, and the following calculation was carried out.
(a) Exo-penicillinase of Bacillus licheniformis 749/C.

Series [5] relates to Inducible penicillinase of Bacillus cereus 569 (ATCC 27348). Described as above. Format: biochemical. The note with it: for Km: 30° C., pH 6.8 phosphate buffer, decrease of optical density at 301 nm (PS-6) or 308 nm (PS-7); for Behavior against β-lactamase: β-lactamase of Bacillus cereus. As to the method: (b) Inducible penicillinase of Bacillus cereus 569 (ATCC 27348). This beta-lactamase was induced by ampicillin and purified by CM-cellulose column chromatography.
as §1, §2
(b) Inducible penicillinase of Bacillus cereus 569. Time course of the hydrolysis of antibiotic PS-6 by this beta-lactamase was followed under the above-described conditions by determining the optical density at 301 nm of the reaction mixtures containing 7.5 μl of the above mentioned enzyme preparation and […] of antibiotic PS-6 as the substrate in a total of 3.0 ml (final concentration of antibiotic PS-6=[…]/ml=8.63 μg/ml; optical density at 301 nm=0.366).
The behavior of the antibiotic PS-7 (sodium salt) against the induced-type penicillinase produced by Bacillus careus 569 (ATCC 27348) as the substrate was examined according to the following method:
Sodium salt of the antibiotic PS-7 was dissolved in 100 mM phosphate buffer solution (pH 6.8) at the indicated concentration.
The induced-type penicillinase of Bacillus cereus 569 (ATCC 27348) was induced by Ampicillin and partially purified by CM cellulose (Brown Co.) column chromatography.
The solution of the antibiotic PS-7 that was served as the substrate was warmed at 30° C. […] The reaction was carried out at 30° C. and a decrease in the substrate, antibiotic PS-7, was monitered by the absorbance at 308 nm.
A balance of absorbance at 308 nm was determined to be ε=9720 on the assumption that the ε value of the antibiotic PS-7 is 10,800 based on the decrease in the absorbance when pure preparation of the antibiotic PS-7 was completely decomposed by the enzyme above mentioned.
A reaction mixture containing 10 μl of the penicillinase preparation and 102 mμ moles of the antibiotic PS-7 (final concentration: 34 mμ moles/ml) in a total volumn of 3.0 ml was incubated under the conditions mentioned above and change of decreasing concentration of the antibiotic PS-7 was measured in relation to the incubation time.

Series [6] deals with Streptococcus pyogenes NY-5. Nature of the series: MIC, broth dilution method. As to conditions: Streptococcus pyogenes, NY5, 20 h, read-out: Minimum inhibitory concentration.
Series [7] relates to Diplococcus pneumoniae Type III. Briefly: MIC, broth dilution method. Type of series: cell-based. The note with it: Streptococcus pneumoniae; Table 7; no unit in the head; horse serum in the medium at 10%; read-out: Minimum inhibitory concentration.

In general, Km refers to the concentration of substrate that gives half-maximal velocity.

SMILES strings stand for the structures. Values after ≈ are worked out from the molar mass of the structure shown. “Also recorded” adds a separate entry of the source.

T1 sequence (P00808 43-307): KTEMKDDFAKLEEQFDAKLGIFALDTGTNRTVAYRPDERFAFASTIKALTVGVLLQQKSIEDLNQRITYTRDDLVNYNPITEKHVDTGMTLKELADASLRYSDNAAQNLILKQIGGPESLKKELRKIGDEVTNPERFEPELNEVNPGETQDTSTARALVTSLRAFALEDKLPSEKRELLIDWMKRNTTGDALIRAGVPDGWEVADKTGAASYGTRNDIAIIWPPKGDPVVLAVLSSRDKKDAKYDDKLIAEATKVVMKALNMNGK

In the case of `CC(=O)NCCSC1=C(C(=O)O)N2C(=O)C(C(C)C)C2C1` (stereo not shown) [Antibiotic PS-6], in series [1], the “Synergistic enhancement of the activity of penicillin G or cephaloridine (β-lactam antibiotics)” value is given as “showed clearly the synergistic effect; also recorded: ability to increase the antibiotic activity of other antibiotics”. Further, the MIC came to 12.5 µg/mL (≈ 40 µM) with Proteus mirabilis P-6; 12.5 µg/mL (≈ 40 µM) with Proteus sp. P-22; 25 µg/mL (≈ 80 µM) with Proteus vulgaris P-5; 1.34 µg/mL (≈ 4.29 µM) in [2]; 12.5 µg/mL (≈ 40 µM) in the series with Providencia sp. P-8; 0.33 µg/mL (≈ 1.06 µM) in [3]. For the same molecule, the MIC in [6] came out at 0.33 µg/mL (≈ 1.06 µM). Also, the Solubility in water entry in the series “Solubility” is “soluble in water at pH 6 to 9”. The “Solubility in organic solvents” value in the series “Solubility” is “substantially insoluble in benzene, acetone and ethylacetate”. For the same molecule, the “Hydrolysis by the beta-lactamase” value in [4] is “without a substantial hydrolysis”. Also, in series [5], the Km was determined as 17.7 µM. The “Behavior against β-lactamase” value in series [5] is “inactivated”.
For the molecule `CCC1C(=O)N2C(C(=O)O)=C(SC=CNC(C)=O)CC12` (stereo not shown) [Antibiotic PS-7], the “Synergistic enhancement of the activity of penicillin G or cephaloridine (β-lactam antibiotics)” value in [1] is listed as “ability to enhance antimicrobial activity of other antibiotics; also recorded: evident enhancement of antimicrobial activity”. Also, the MIC in [7] is less than 0.19 µg/mL. In “Solubility”, the Solubility in water entry is on record as “Soluble in water at pH6-9”; the “Solubility in organic solvents” value is “practically insoluble in benzene, acetone and ethyl acetate”. In series [5], the Km is 13 µM and the “Behavior against β-lactamase” value is recorded as “inactivated”.

For the origin of these results see patent US4368203A, “Antibiotics and derivatives thereof having β-lactamase inhibitory activity and production thereof” (priority 1977, dated 1983).
